US20230115945A1, “AMINOPYRIMIDINE COMPOUNDS” (TYRA BIOSCIENCES, INC., priority 2019, published 2023)

Key:
[1] = system: SNU-16 cells (Gastric Carcinoma, FGFR2 amplification); experiment: Cancer cell line cell viability assay, SNU-16; type: cell-based; details: Homo sapiens, 72 hours, Cell Titer-Glo 2.0, read-out: Cancer Cell Viability Assays SNU-16 (IC50 nM)
Excerpt: (§1) [table] To detect the change of intracellular ATP by Cell Titer-Glo® and to evaluate the inhibitory effect of the compounds on cancer cell lines by determining the in vitro IC50 value of the compounds. Cell Titer-Glo® 2.0 Luminescent cell viability assay reagent was purchased from Promega (Madison, Wis.). RT112/84, SNU-16, and KG-1 cell lines were purchased from American Type Culture Collection (Manassas, Va.). UM-UC-14 cell line was purchased from Sigma (St. Louis, Mo.). RT112/84, UM-UC-14, SNU-16, and KG-1 cells were cultured in RPMI1640 media supplemented with 10% fetal bovine serum. Cultures were maintained at 37° C. in a humidified atmosphere of 5% CO2 and 95% air. Cell Viability Assay Procedure: Cells were plated in 96-well clear bottom/white plates (Corning #3903) at 10,000 cells/well in 100 μl of media, incubated overnight. The next day, test compound DMSO stock solutions were made at 10 mM and 2 μM final concentration. Compounds were then added to cells in a 9-dose, […] dilution series starting at 30 μM with an HP 300e Digital Dispenser (each dose was applied in triplicate). DMSO was backfilled to each well up to 301 nL total volume of test compound+DMSO, and a total of 301 nL DMSO was added to a control/no test compound well in triplicate. The cells in cell culture plates were incubated with the compounds at 37° C. and 5% CO2 for 72 hours. Then 50 μl of Cell Titer Glo 2.0 reagent was added to each well of the cell culture plates. The contents were covered from light and mixed on an orbital shaker at room temperature for 10 min. Luminescence was recorded by a Synergy H1 Microplate Reader (Biotek, Winooski, Vt.). Cells were assessed as a percentage of DMSO only treated control cells. Curves were plotted and IC50 values were calculated using the GraphPad Prism 8 program based on a sigmoidal dose-response equation (4 parameter).

[2] = system: RT112/84 cells (Bladder Cancer, FGFR3-TACC3 fusion); experiment: Cancer cell line cell viability assay, RT112/84; type: cell-based; details: Homo sapiens, 72 hours, Cell Titer-Glo 2.0, read-out: Cancer Cell Viability Assays RT112/84 (IC50 nM)
Excerpt: as §1

[3] = target: T1, FGFR3 (V555M) (Homo sapiens, UniProt P22607, V555M); experiment: Kinase binding assay (Kd), FGFR3 (V555M); details: 11-point 3-fold dilution, qPCR readout
T1 construct: made in house; host or cells: E. coli host derived from BL21, infected with T7 phage
Experimental: (§2) Kinase-tagged T7 phage strains were prepared in an E. coli host derived from the BL21 strain. E. coli were grown to log-phase and infected with T7 phage and incubated with shaking at 32° C. until lysis. The lysates were centrifuged and filtered to remove cell debris. Streptavidin-coated magnetic beads were treated with biotinylated small molecule ligands for 30 minutes at room temperature to generate affinity resins for kinase assays. The liganded beads were blocked with excess biotin and washed with blocking buffer SeaBlock (Pierce), 1% BSA, 0.05% Tween 20, 1 mM DTT to remove unbound ligand and to reduce non-specific binding. Binding reactions were assembled by combining kinases, liganded affinity beads, and test compounds in 1× binding buffer (20% SeaBlock, 0.17×PBS, 0.05% Tween 20, 6 mM DTT).
(§3) Test compounds were prepared as 111X stocks in 100% DMSO. Kds were determined using an 11-point 3-fold compound dilution series with three DMSO control points. All compounds for Kd measurements are distributed by acoustic transfer (non-contact dispensing) in 100% DMSO. The compounds were then diluted directly into the assays such that the final concentration of DMSO was 0.9%. All reactions performed in polypropylene 384-well plate. Each was a final volume of 0.02 ml. The assay plates were incubated at room temperature with shaking for 1 hour and the affinity beads were washed with wash buffer (lx PBS, 0.05% Tween 20). The beads were then re-suspended in elution buffer (lx PBS, 0.05% Tween 20, 0.5 μM non-biotinylated affinity ligand) and incubated at room temperature with shaking for 30 minutes. The kinase concentration in the eluates was measured by qPCR.
(§4) Binding constants were calculated with a standard dose-response curve using the Hill equation: […]
(§5) The Hill Slope was set to −1. Curves were fitted using a non-linear least square fit with the Levenberg-Marquardt algorithm.

[4] = target: T2, FGFR4 (Homo sapiens, UniProt P22455); experiment: Kinase binding assay (Kd), FGFR4; details: 11-point 3-fold dilution, qPCR readout
T2 construct: made in house; host or cells: E. coli host derived from BL21, infected with T7 phage
Experimental: as §2, §3, §4, §5

[5] = target: T3, FGFR3 (Homo sapiens, UniProt P22607); experiment: Kinase binding assay (Kd), FGFR3; details: 11-point 3-fold dilution, qPCR readout
T3 construct: made in house; host or cells: E. coli host derived from BL21, infected with T7 phage
Experimental: as §2, §3, §4, §5

[6] = target: T4, FGFR2 (Homo sapiens, UniProt P21802); experiment: Kinase binding assay (Kd), FGFR2; details: 11-point 3-fold dilution, qPCR readout
T4 construct: made in house; host or cells: E. coli host derived from BL21, infected with T7 phage
Experimental: as §2, §3, §4, §5

[7] = target: T5, FGFR1 (Homo sapiens, UniProt P11362); experiment: Kinase binding assay (Kd), FGFR1; details: 11-point 3-fold dilution, qPCR readout
T5 construct: made in house; host or cells: E. coli host derived from BL21, infected with T7 phage
Experimental: as §2, §3, §4, §5

T4 sequence (P21802 22-821): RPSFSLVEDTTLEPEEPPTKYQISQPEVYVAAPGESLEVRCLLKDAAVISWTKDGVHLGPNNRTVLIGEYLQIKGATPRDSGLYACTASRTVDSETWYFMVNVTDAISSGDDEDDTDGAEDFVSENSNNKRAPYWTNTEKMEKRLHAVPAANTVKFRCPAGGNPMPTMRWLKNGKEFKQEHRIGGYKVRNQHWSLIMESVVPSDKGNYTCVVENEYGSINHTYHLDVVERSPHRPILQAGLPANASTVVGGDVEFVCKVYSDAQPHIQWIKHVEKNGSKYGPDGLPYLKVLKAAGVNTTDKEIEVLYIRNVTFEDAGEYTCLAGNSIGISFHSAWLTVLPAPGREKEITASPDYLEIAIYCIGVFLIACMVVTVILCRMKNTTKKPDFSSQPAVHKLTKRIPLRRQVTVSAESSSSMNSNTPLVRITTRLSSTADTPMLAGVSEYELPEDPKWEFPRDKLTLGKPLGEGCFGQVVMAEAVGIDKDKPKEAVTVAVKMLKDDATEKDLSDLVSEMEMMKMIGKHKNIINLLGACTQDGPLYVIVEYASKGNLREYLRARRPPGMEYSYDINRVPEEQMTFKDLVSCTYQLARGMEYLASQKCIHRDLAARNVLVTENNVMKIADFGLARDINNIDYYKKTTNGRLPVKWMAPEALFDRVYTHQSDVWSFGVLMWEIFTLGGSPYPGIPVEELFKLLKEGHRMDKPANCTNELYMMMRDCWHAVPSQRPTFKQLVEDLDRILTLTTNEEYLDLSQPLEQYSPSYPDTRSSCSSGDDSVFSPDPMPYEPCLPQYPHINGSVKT
T3 sequence (P22607 23-806): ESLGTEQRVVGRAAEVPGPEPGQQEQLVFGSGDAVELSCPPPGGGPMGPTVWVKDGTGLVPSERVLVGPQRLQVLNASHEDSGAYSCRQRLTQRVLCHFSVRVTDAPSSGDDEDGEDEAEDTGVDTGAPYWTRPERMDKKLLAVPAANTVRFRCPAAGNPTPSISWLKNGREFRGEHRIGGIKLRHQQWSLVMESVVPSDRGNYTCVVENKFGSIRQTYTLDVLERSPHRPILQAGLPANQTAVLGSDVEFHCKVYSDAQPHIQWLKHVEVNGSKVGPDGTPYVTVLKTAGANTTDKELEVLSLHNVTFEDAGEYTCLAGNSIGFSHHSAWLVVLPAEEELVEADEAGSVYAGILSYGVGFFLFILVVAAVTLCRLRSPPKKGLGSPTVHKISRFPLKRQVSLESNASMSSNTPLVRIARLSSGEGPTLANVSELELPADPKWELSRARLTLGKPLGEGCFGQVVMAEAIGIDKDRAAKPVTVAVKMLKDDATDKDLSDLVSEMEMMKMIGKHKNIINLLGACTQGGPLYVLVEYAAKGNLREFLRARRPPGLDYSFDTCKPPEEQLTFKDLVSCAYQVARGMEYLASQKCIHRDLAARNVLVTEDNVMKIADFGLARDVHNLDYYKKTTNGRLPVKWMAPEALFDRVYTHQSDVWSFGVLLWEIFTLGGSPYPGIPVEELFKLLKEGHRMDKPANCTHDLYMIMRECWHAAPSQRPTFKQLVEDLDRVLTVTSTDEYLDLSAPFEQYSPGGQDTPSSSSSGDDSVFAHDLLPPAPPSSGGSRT
T5 sequence (P11362 22-822): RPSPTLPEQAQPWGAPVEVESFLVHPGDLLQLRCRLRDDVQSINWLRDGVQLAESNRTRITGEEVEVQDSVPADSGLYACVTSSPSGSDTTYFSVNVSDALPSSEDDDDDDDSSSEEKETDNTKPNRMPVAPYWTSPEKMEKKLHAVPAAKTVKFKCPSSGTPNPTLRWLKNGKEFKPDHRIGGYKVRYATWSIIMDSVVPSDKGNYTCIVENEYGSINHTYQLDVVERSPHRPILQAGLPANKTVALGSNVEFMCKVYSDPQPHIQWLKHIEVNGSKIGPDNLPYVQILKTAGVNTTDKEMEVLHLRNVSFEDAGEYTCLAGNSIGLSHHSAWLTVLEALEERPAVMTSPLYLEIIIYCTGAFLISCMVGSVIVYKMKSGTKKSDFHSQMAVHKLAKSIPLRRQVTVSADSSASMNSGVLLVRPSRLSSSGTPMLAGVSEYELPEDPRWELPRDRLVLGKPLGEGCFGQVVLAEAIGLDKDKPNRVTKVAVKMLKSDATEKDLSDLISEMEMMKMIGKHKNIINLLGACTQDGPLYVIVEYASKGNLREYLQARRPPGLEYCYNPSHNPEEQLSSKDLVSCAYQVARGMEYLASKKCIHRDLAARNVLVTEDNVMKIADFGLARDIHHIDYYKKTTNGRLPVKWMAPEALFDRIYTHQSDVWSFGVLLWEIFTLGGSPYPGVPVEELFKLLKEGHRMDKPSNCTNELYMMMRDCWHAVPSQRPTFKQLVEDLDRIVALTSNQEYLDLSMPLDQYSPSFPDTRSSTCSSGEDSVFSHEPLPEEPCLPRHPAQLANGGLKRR
T1 sequence (P22607 23-806 V555M): as the sequence (P22607 23-806) above, with V533M counted along it
T2 sequence (P22455 22-802): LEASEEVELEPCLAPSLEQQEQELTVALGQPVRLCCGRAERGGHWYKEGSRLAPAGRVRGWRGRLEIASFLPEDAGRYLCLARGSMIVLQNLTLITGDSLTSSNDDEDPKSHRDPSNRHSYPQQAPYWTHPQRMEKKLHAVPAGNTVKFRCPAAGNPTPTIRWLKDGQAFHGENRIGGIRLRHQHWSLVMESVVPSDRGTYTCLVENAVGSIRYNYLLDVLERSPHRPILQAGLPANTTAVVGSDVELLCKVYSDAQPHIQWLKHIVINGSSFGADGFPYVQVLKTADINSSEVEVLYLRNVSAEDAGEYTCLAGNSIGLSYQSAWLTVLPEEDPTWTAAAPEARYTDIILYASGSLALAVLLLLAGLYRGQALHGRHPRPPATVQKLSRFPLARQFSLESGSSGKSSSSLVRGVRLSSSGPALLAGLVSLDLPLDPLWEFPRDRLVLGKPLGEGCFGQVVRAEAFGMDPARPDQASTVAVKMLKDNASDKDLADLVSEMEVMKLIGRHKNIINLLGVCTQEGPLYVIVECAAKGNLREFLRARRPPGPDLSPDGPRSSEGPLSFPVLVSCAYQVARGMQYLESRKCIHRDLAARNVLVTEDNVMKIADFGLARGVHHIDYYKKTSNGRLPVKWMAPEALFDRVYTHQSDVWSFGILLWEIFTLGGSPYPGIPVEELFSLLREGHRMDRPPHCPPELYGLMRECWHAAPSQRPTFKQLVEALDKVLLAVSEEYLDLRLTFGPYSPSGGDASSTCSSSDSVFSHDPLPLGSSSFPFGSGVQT

Row | Structure (SMILES) | IC50 [1] [nM] | IC50 [2] [nM] | Kd [3] [nM] | Kd [4] [nM] | Kd [5] [nM] | Kd [6] [nM] | Kd [7] [nM]
1 | N=S1(=O)CCN(c2ccc(Nc3ncc(Cl)c(-c4c[nH]c5ccccc45)n3)cc2)CC1 [Example 53, 5-Chloro-N-[4-(1-imino-1-oxo-1,4-thiazinan-4-yl)phenyl]-4-(1H-indol-3-yl)pyrimidin-2-amine] | 31 | 22 | 1 | 74 | 11 | 3 | 5
2 | CN1CCS(=O)(=Nc2ccc(Nc3ncc(Cl)c(-c4c[nH]c5ccccc45)n3)cc2)CC1 [Example 55, 5-Chloro-4-(1H-indol-3-yl)-N-[4-[(4-methyl-1-oxo-1,4-thiazinan-l-ylidene)amino]-phenyl]pyrimidin-2-amine] | 40 | 49 | 2 | 110 | 23 | 6 | 13
3 | C=CC(=O)Nc1ccc2c(ccn2-c2nc(Nc3ccc(N=S4(=O)CCN(C)CC4)cc3)ncc2Cl)c1 [Example 69, N-[1-[5-Chloro-2-[4-[(4-methyl-1-oxo-1,4-thiazinan-1-ylidene)amino]anilino]pyrimidin-4-yl]indol-5-yl]prop-2-enamide] | 14 | 82 | 3.8 | 160 | 14 | 28 | 33
4 | COc1cc(N=S2(=O)CCN(C(C)C)CC2)ccc1Nc1ncc(Cl)c(-c2c[nH]c3ccccc23)n1 [Example 40, 5-Chloro-4-(1H-indol-3-yl)-N-[4-[(4-isopropyl-1-oxo-1,4-thiazinan-1-ylidene)amino]-2-methoxy-phenyl]pyrimidin-2-amine] | – | – | 10 | 100 | 110 | 860 | 80
5 | C=CC(=O)Nc1ccc2c(-c3nc(Nc4ccc(S(C)(=N)=O)cc4)ncc3Cl)c[nH]c2c1 (stereo not shown) [Example 89, N-[3-[5-chloro-2-[4-(methylsulfonimidoyl)anilino]pyrimidin-4-yl]-1H-indol-6-yl]prop-2-enamide] | – | – | 7.5 | 510 | 70 | 50 | 76
6 | C=CC(=O)Nc1ccc2c(cnn2-c2nc(Nc3ccc(N=S(C)(C)=O)cc3)ncc2Cl)c1 [Example 86, N-[1-[5-Chloro-2-[4-[[dimethyl(oxo)-λ^6-sulfanylidene]amino]anilino]-pyrimidin-4-yl]indazol-5-yl]prop-2-enamide] | – | – | 7.1 | 240 | 46 | 63 | 90
7 | CS(C)(=O)=Nc1ccc(Nc2ncc(F)c(-c3c[nH]c4ccccc34)n2)cc1 [Example 59, N-[4-[[Dimethyl(oxo)-λ^6-sulfanylidene]amino]phenyl]-5-fluoro-4-(1H-indol-3-yl)pyrimidin-2-amine] | – | – | 11 | 130 | 22 | 50 | 18
8 | Cc1ccc2c(-c3nc(Nc4ccc(N=S(C)(C)=O)cc4)ncc3C)c[nH]c2c1 [Example 28, N-[4-[[dimethyl(oxo)-λ^6-sulfanylidene]amino]phenyl]-5-methyl-4-(6-methyl-1H-indol-3-yl)pyrimidin-2-amine] | – | – | 4 | 290 | 44 | 63 | 27
9 | Cc1ccc2c(-c3nc(Nc4ccc(N5CCS(=N)(=O)CC5)cc4)ncc3C)c[nH]c2c1 [Example 34, N-[4-(1-imino-1-oxo-1,4-thiazinan-4-yl)phenyl]-5-methyl-4-(6-methyl-1H-indol-3-yl)pyrimidin-2-amine] | – | – | 2 | 230 | 30 | 39 | 14

The next lines start with the values.

Row | IC50 [1] [nM] | IC50 [2] [nM] | Kd [3] [nM] | Kd [4] [nM] | Kd [5] [nM] | Kd [6] [nM] | Kd [7] [nM] | Structure (SMILES)
10 | 130 | 119 | 3 | 26 | 34 | 92 | 25 | COc1cc(N=S2(=O)CCN(C)CC2)ccc1Nc1ncc(Cl)c(-c2c[nH]c3ccccc23)n1 [Example 38, 5-Chloro-4-(1H-indol-3-yl)-N-[2-methoxy-4-[(4-methyl-1-oxo-1,4-thiazinan-1-ylidene)-amino]phenyl]pyrimidin-2-amine]
11 | – | – | 28 | 120 | 290 | 1200 | 500 | CN=S(C)(=O)c1ccc(Nc2ncc(Cl)c(-c3c[nH]c4ccccc34)n2)c(OC)c1 (stereo not shown) [Example 37, 5-Chloro-N-[4-(N,S-dimethylsulfonimidoyl)-2-methoxy-phenyl]-4-(1H-indol-3-yl)pyrimidin-2-amine]
12 | – | – | 110 | 4200 | 1800 | 3300 | 3000 | COc1cc(S(C)(=N)=O)ccc1Nc1ncc(C)c(-n2ccc3ccccc32)n1 (stereo not shown) [Example 42, 4-Indol-1-yl-N-[2-methoxy-4-(methylsulfonimidoyl)phenyl]-5-methyl-pyrimidin-2-amine]
13 | – | – | 42 | 4100 | 2800 | 15000 | 2200 | COc1cc(N2CCS(=N)(=O)CC2)ccc1Nc1ncc(Cl)c(-n2ccc3ccccc32)n1 [Example 44, 5-Chloro-N-[4-(1-imino-1-oxo-1,4-thiazinan-4-yl)-2-methoxy-phenyl]-4-indol-1-yl-pyrimidin-2-amine]
14 | – | – | 90 | 2000 | 1100 | 1700 | 390 | COc1ccc(N=S(C)(C)=O)cc1Nc1ncc(Cl)c(-c2c[nH]c3ccccc23)n1 [Example 6, 5-chloro-N-[5-[[dimethyl(oxo)-λ^6-sulfanylidene]amino]-2-methoxy-phenyl]-4-(1H-indol-3-yl)pyrimidin-2-amine]
15 | – | – | 420 | 6200 | 4300 | 14000 | 3300 | COc1c(N=S(C)(C)=O)cccc1Nc1ncc(Cl)c(-c2c[nH]c3ccccc23)n1 [Example 5, 5-chloro-N-[3-[[dimethyl(oxo)-λ^6-sulfanylidene]amino]-2-methoxy-phenyl]-4-(1H-indol-3-yl)pyrimidin-2-amine]
16 | – | – | 1 | 52 | 3 | 3 | 2 | COc1cc(Nc2ncc(C)c(-c3c[nH]c4c(F)cccc34)n2)ccc1N=S(C)(C)=O [Example 32, N-[4-[[dimethyl(oxo)-λ^6-sulfanylidene]amino]-3-methoxy-phenyl]-4-(7-fluoro-1H-indol-3-yl)-5-methyl-pyrimidin-2-amine]
17 | 73 | 100 | – | 290 | 4700 | 11000 | 4500 | CC(C)Oc1cc(N=S(C)(C)=O)ccc1Nc1ncc(Cl)c(-c2c[nH]c3ccccc23)n1 [Example 3, 5-chloro-N-[4-[[dimethyl(oxo)-λ^6-sulfanylidene]amino]-2-isopropoxy-phenyl]-4-(1H-indol-3-yl)pyrimidin-2-amine]
